Assay results from ChEMBL document CHEMBL3044616, “Synthesis, crystal structure and -glucuronidase inhibition activity of some new hydrazinecarboxamides and their 1,2,4-triazole derivatives” (Med Chem Res, 2012).
pIC50: −log10 of the molar value. Active and inactive are the calls of the source. The calls are words filed in the database; no cut-off is given here.

Legend:
[1] = Inhibition of Escherichia coli beta-glucuronidase using para-nitrophenyl-beta-D-glucuronide as substrate incubated for 30 min prior to substrate addition measured for 30 min by spectrophotometric analysis
[2] = system: Escherichia coli; experiment: Inhibition of Escherichia coli beta-glucuronidase using para-nitrophenyl-beta-D-glucuronide as substrate at 0.2 mM incubated for 30 min prior to substrate addition measured for 30 min by spectrophotometric analysis

## COc1cccc(CC(=O)NNC(=O)Nc2cccc(OC)c2)c1
[1]
  pIC50: 3.99
[2]
  inhibition: 70.8%

## COc1cccc(CCC(=O)NNC(=O)Nc2cccc(OC)c2)c1
[1]
  pIC50: 3.75
[2]
  inhibition: 52%

## COc1cccc(Cc2n[nH]c(=O)n2-c2cccc(OC)c2)c1
[2]
  inhibition: inactive

## COc1cccc(-n2c(CCc3ccccc3OC)n[nH]c2=O)c1
[2]
  inhibition: inactive

## COc1ccc(NC(=O)NNC(=O)CCc2cccc(OC)c2)cc1
[1]
  pIC50: 4.13
[2]
  inhibition: 73.3%

## COc1ccccc1CC(=O)NNC(=O)Nc1ccccc1OC
[1]
  pIC50: 4.39
[2]
  inhibition: 88.8%

## COc1ccc(CCc2n[nH]c(=O)n2-c2cccc(OC)c2)cc1
[2]
  inhibition: inactive

## COc1cccc(-n2c(Cc3ccccc3OC)n[nH]c2=O)c1
[2]
  inhibition: inactive

## COc1ccc(NC(=O)NNC(=O)CCc2ccccc2OC)cc1
[1]
  pIC50: 4.81
[2]
  inhibition: 87.9%

## COc1ccccc1Cc1n[nH]c(=O)n1-c1ccccc1OC
[2]
  inhibition: inactive

## COc1cccc(NC(=O)NNC(=O)Cc2ccccc2OC)c1
[2]
  inhibition: 46.5%

## O=C(O)[C@@H](O)[C@H]1OC(=O)[C@H](O)[C@H]1O
[2]
  inhibition: 86.2%

## COc1ccc(CCC(=O)NNC(=O)Nc2ccccc2OC)cc1
[1]
  pIC50: 4.34
[2]
  inhibition: 83.7%

## COc1cccc(CCC(=O)NNC(=O)Nc2ccccc2OC)c1
[1]
  pIC50: 4.28
[2]
  inhibition: 82.9%

## COc1ccc(CCC(=O)NNC(=O)Nc2cccc(OC)c2)cc1
[1]
  pIC50: 4.01
[2]
  inhibition: 59.3%

## COc1ccc(CCc2n[nH]c(=O)n2-c2ccccc2OC)cc1
[2]
  inhibition: inactive

## COc1ccc(Cc2n[nH]c(=O)n2-c2ccccc2OC)cc1
[2]
  inhibition: inactive

## COc1cccc(NC(=O)NNC(=O)CCc2ccccc2OC)c1
[1]
  pIC50: 4.08
[2]
  inhibition: 54.6%

## COc1ccccc1CCc1n[nH]c(=O)n1-c1ccccc1OC
[2]
  inhibition: inactive

## COc1ccc(CC(=O)NNC(=O)Nc2ccccc2OC)cc1
[1]
  pIC50: 4.77
[2]
  inhibition: 94.5%

## COc1ccccc1CCC(=O)NNC(=O)Nc1ccccc1OC
[1]
  pIC50: 4.17
[2]
  inhibition: 77.6%

## COc1cccc(CC(=O)NNC(=O)Nc2ccccc2OC)c1
[1]
  pIC50: 3.87
[2]
  inhibition: 68.3%

## COc1ccc(-n2c(CCc3ccccc3OC)n[nH]c2=O)cc1
[2]
  inhibition: inactive

## COc1cccc(Cc2n[nH]c(=O)n2-c2ccccc2OC)c1
[2]
  inhibition: inactive

## COc1cccc(CCc2n[nH]c(=O)n2-c2cccc(OC)c2)c1
[2]
  inhibition: inactive

## COc1cccc(CCc2n[nH]c(=O)n2-c2ccccc2OC)c1
[2]
  inhibition: inactive
